The Kd is the constant that tells how readily two partners part at equilibrium.

The values below come from PMC9667936, “Functional mapping of the 14-3-3 hub protein as a guide to design 14-3-3 molecular glues” (Chemical Science, 2022).

Structures are written as SMILES. Where two headings read alike, the source gives them in different places. Where a SMILES comes first, the peptide text is derived from it. [ ]: non-standard residue; d: D form. ξ: configuration not given here. Phe(4-NO2) = N[C@@H](Cc1ccc([N+](=O)[O-])cc1)C(=O)O; ξAla(4-thiazolyl) = NC(Cc1cscn1)C(=O)O; pS = N[C@@H](COP(=O)(O)O)C(=O)O; β3hS = N[C@@H](CO)CC(=O)O; Nva = CCC[C@H](N)C(=O)O; βAla = NCCC(=O)O

The test has as its target T1, 14-3-3γ (Homo sapiens, UniProt P61981).
T1 construct: made in house; host or cells: E. coli NiCo21 (DE3)
T1 sequence (P61981 1-247): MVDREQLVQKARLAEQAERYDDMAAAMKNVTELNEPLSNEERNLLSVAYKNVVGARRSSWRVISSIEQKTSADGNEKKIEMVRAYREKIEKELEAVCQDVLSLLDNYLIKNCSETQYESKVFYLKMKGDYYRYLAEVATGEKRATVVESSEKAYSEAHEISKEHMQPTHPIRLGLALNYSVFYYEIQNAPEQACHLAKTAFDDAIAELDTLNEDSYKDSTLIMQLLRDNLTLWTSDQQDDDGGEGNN
Nature of the test: Isothermal titration calorimetry (ITC) of 14-3-3 binding to peptide. The following applies: for ΔG / Kd / ΔH / -TΔS: ITC, 25 °C; for Kd: Table S6 (unit as in Table S5). Here is the method:
14-3-3γ protein expression (FP/ITC experiments)
A pPROEX HTb expression vector encoding the human 14-3-3 protein gamma (14-3-3γ) with an N-terminal his6-tag was transformed by heat shock into NiCo21 (DE3) competent cells. Single colonies were cultured in 50 mL LB medium (100 µg/mL ampicillin). After overnight incubation at 37 °C, cultures were transferred to 2 L TB media (100 µg/mL ampicillin, 1 mM MgCl2) and incubated at 37 °C until an OD600 nm of 0.8-1.2 was reached. Protein expression was then induced with 0.4 mM isopropyl-β-d-thiogalactoside (IPTG), and cultures were incubated overnight at 18 °C. Cells were harvested by centrifugation (8600 rpm, 20 minutes, 4 °C) and resuspended in lysis buffer (50 mM Hepes, pH 8.0, 300 mM NaCl, 12.5 mM imidazole, 5 mM MgCl2, 2 mM βME) containing cOmplete™ EDTA-free Protease Inhibitor Cocktail tablets (1 tablet/100 ml lysate) and benzonase (1 µl/100 ml). After lysis using a C3 Emulsiflex-C3 homogenizer (Avestin), the cell lysate was cleared by centrifugation (20000 rpm, 30 minutes, 4 °C) and purified using Ni2+-affinity chromatography (Ni-NTA superflow cartridges, Qiagen).
Typically two 5 mL columns (flow 5 mL/min) were used for a 2 L culture in which the lysate was loaded on the column washed with 10 CV wash buffer (50 mM Hepes, pH 8.0, 300 mM NaCl, 25 mM imidazole, 2 mM βME) and eluted in several fractions (2-4 CV) of elution buffer (50 mM Hepes, pH 8.0, 300 mM NaCl, 250 mM imidazole, 2 mM βME). Fractions containing the 14-3-3 protein were combined and dialyzed into 25 mM HEPES pH 8.0, 100 mM NaCl, 10 mM MgCl2, 500 µM TCEP. […]
The peptides 1 and 2a-d were synthesized on 50 µmol scale on a Rink amide MBHA resin (Novabiochem, 0.52 mmol/g loading) using an automated Intavis MultiPep RSi peptide synthesizer.
Deprotection was performed twice per cycle with 20% v/v piperidine in DMF for 8 minutes. Fmoc-protected amino acids were mixed in 5 equivalents of HBTU and 9 equivalents of DIPEA in DMF, and coupled to the resin. With the exception of phosphoserine, which was coupled once for 60 minutes, all amino acids were coupled to the resin twice for 30 minutes. Capping of unreacted amino acids was performed with a mixture of acetic anhydride/pyridine/DMF (1:1:3) for 5 minutes. βAla was incorporated as a spacer between the sequence and Lys(Alloc), to which a FITC fluorophore will be coupled for fluorescence anisotropy studies.
The peptides 1 and 2e-i were synthesized manually on a 50 µmol scale using Rink amide MBHA resin (Novabiochem, 0.52 mmol/g loading) via Fmoc based solid phase peptide synthesis. […]
(lex: 485 ± 20 nm; lem: 535 ± 25 nm; mirror: Dichroic 510; flashes: 20; integration time: 50 ms; settle time:
0 ms; gain: optimal; and Z-position: calculated from well). […]
Data was obtained and averaged based on two
To determine the cooperativity parameters from the 2D-titration of 14-3-3/ChREBP/2d (as described above) we have used the general framework for straightforward model construction of multi-component thermodynamic equilibrium systems as described by Geertjens et al. (2021).10 This general platform generates a model to describe multi-component equilibrium systems when given a system description.
In our case we gave the following system description: […]
α (with 95% confidence interval) and the error-landscape of the determine parameters.
Fluorescence anisotropy (FA) – Selectivity study: Peptides representing 14-3-3 binding partners (including ChREBP) were titrated in a 2-fold dilution series (starting at 100 µM) to 20 nM of fluorescein-labeled peptide 2d in presence and absence of, respectively, 2 µM 14-3-3γ in FA buffer (10 mM HEPES pH 7.4, 150 mM NaCl, 0.1% (v/v) Tween20, 0.1% (w/v) BSA). Dilution series were made in a polystyrene (non-binding) low-volume Corning Black Round Bottom 384-well plates (Corning 4514 or 4511).
Measurements were performed directly after plate preparation, using a Tecan Infinite F500 plate reader at room temperature (lex: 485 ± 20 nm; lem: 535 ± 25 nm; mirror: Dichroic 510; flashes: 20; integration […]
Background: ITC needs no label: the signal is the heat of the interaction.

`CCC[C@H](NC(=O)[C@H](N)CCCCN)C(=O)N[C@@H](Cc1ccc([N+](=O)[O-])cc1)C(=O)NC(Cc1cscn1)C(=O)N[C@@H](COP(=O)(O)O)C(=O)N[C@@H](Cc1ccc(O)cc1)C(=O)N[C@@H](CO)CC(=O)NCCC(=O)N[C@@H](Cc1ccc([N+](=O)[O-])cc1)C(=O)N[C@@H](CCCCN)C(N)=O` (stereo partly drawn) [4a] (H-[dK][Nva][Phe(4-NO2)][ξAla(4-thiazolyl)][pS]Y[β3hS][βAla][Phe(4-NO2)]K-NH2; N-terminus and C-terminus assumed): the “Fold change to 1” value (Table S5, ITC Kd / Kd of peptide 1, first unlabelled line (replicate 1)) was 2.8; the “Fold change to 1” value (Table S5, ITC Kd / Kd of peptide 1, second unlabelled line (replicate 2)) is recorded as 1.3; the “Fold change to 1” value (Table S5, ITC Kd of peptide divided by Kd of peptide 1, mean of n = 2) was found to be 2.1. For the same compound, the ΔG by setting is: (Table S5, mean of n = 2) -9.6 kcal/mol; (Table S5, replicate 1) -9.4 kcal/mol; (Table S5, replicate 2) -9.8 kcal/mol; (Table S6, average of two runs) -9,63 kcal mol^-1; (Table S6, run 1) -9,411 kcal mol^-1; (Table S6, run 2) -9,844 kcal mol^-1. The “ΔΔG to 1” value is, setting by setting: (Table S5, ΔG minus ΔG of peptide 1, ITC, first unlabelled line (replicate 1)) 0.6 kcal/mol; (Table S5, ΔG minus ΔG of peptide 1, ITC, second unlabelled line (replicate 2)) 0.2 kcal/mol; (Table S5, ΔG of peptide minus ΔG of peptide 1, ITC, mean of n = 2) 0.4 kcal/mol. Moreover, the Kd is 93.6 nM (average of two runs, read-out: Kd); 1,26E-07 M (run 1); 6,09E-08 M (run 2). In addition, the ΔH was -6,64 kcal mol^-1 (Table S6 (unit given in Fig. 4 legend), average of two runs); -5,83 kcal mol^-1 (Table S6, run 1); -7,45 kcal mol^-1 (Table S6, run 2). Also, the “-TΔS” value runs as follows: (Table S6, average of two runs) -2,99 kcal mol^-1; (Table S6, run 1) -3,582 kcal mol^-1; (Table S6, run 2) -2,393 kcal mol^-1.
